Data on 1 compound can be found in patent publication US20050100577A1, “Expandable medical device with beneficial agent matrix formed by a multi solvent system” (priority 2003, published 2005).

SMILES strings stand for the structures.

The text on data set [1]: A second drug, such as paclitaxel, which is soluble in anisole can be provided in the top layers. Therefore, the arrangement shown in FIG. 4 can include 2-CdA in the first therapeutic agent layer 60 and paclitaxel in the second therapeutic agent layer 70.
For data set [2] the following is noted: cited from earlier work.

On to `Nc1nc(Cl)nc2c1ncn2[C@H]1C[C@H](O)[C@@H](CO)O1` [2-CdA, 2-chlorodeoxyadenosine], for which, in data set [1], the “solubility in first solvent, DMSO” value is given as “very soluble” and the “solubility in second solvent, anisole” value was “marginal solubility”. The water solubility result in data set [2] is reported as “about 4.5 mg/ml”.
